Source: US7851654B2, “Chalcone derivatives, pharmaceutically acceptable salt, method for preparation and uses thereof” (Industry-Academic Cooperation Foundation Gyeongsang …, priority 2006, dated 2010)

Experiments:
B-16 melanoma [1] = assay: Melanin synthesis inhibitory activity in B-16 melanoma; format: cell-based, mice; conditions: Mus musculus, B16, DMEM with a-MSH and theophylline, read-out: IC50 melanin synthesis inhibition
Protocol: To identify the melanin synthesis inhibitory activities of the chalcone derivatives of the present invention, whitening effects were measured using B-16 melanoma. 2 ml of B-16 melanoma, derived from black mice, was added to the respective wells in concentration of 2×10^4 cells/well on a 6 well plate using DMEM with 10% FBS and cultivated under the conditions of 5% CO2 and 37° C. for twenty four hours. Media were removed after the cultivation and the DMEM used was replaced with DMEM having 10% FBS, 0.2 mM a-MSH and 2 mM theophylline. Subsequently, appropriate amounts of the chalcone compounds of Examples 2 to 6, 8, 13, 14, 17 and 18 were diluted with the same media and added thereto, respectively, to be cultivated under the conditions of 5% CO2 and 37° C. until the cells grew above 80%. The media were removed after the cultivation and the resultant compounds were washed with PBS and processed with […] to collect cell pellets. Collected pellets were moved to 1.5 ml of Eppendorf tubes to be centrifuged at […] for ten minutes. Then, the pellets in which supernatants were removed were dried in an incubator of 60° C. for twenty four hours. Subsequently, 1N NaOH was added thereto to dissolve melanins in the cells. Dissolved melanins are diluted with appropriate amounts of PBS to measure absorbance at 490 nm, thus obtaining melanin inhibitory rates via Equation 1 above (T. Mosmann, J. Immunol. Methods, 1983, 65, 55; P. R. Gorden, J. Invest. Dermatol., 1989, 92, 565). As a comparative example, the same experiment was carried out using albutin.

β-amylase = β-amylase inhibitory activity via analysis of reducing sugars; format: biochemical; conditions: 1% starch substrate, DNS reagent, same manner as α-amylase test
Protocol: (§1) α-amylase, a kind of glycosidase enzymes, was used to identify glycosidase inhibitory activities of the chalcone derivatives of the present invention. Using 1% starch as substrate, α-amylase activities were measured by measuring the amounts in that α-amylases hydrolyzed the substrates after adding DNS (1% dinitrosalicylic acid, 12% potassium sodium tartrate in 0.4 M NaOH), a color reagent (Bioorg. Med. Chem. Lett., 2002, 12, 2335-2339). 1% starch as substrate was dissolved in acetate buffer (0.05 M, pH 4.5) in test tubes. After preprocessing at 37° C. for ten minutes, the resultant solutions were quantified as 100 μl in tubes. α-amylases of 0.25 unit/ml, prepared with the acetate buffer, were quantified as 100 μl. Subsequently, the chalcone derivatives prepared in Examples 2, 5, 6, 8, 9, 10, 11 and 12 in accordance with the present invention were dissolved in 50% DMSO solvent and quantified as 50 μl, respectively. After reacting the samples quantified at 37° C. for twenty minutes, 300 μl of DNS, the color reagent, were added thereto. Next, the resultant solutions were reacted in boiled water for ten minutes and cooled to measure absorbance at 540 nm, thus obtaining amylase inhibitory rates via equation 1 above. Measured IC50 values of the chalcone derivatives prepared in Examples 2, 5, 6, 8, 9, 10, 11 and 12 for α-amylases were depicted in table 3.
β-amylase inhibitory activities were measured in the same manner as Experimental example 2 except for using β-amylases as glycosidase and the IC50 values were depicted in Table 3 above.

α-amylase = α-amylase inhibitory activity via analysis of reducing sugars; format: biochemical; conditions: 1% starch substrate, DNS reagent, pH 4.5, 37° C., twenty minutes
Protocol: as §1

B-16 melanoma [2] = assay: Cytotoxicity in B-16 melanoma; format: cell-based, mice; conditions: melanin test not performed because of cytotoxicity

Compound | IC50 (B-16 melanoma [1]) [µM] | IC50 (β-amylase) [µM] | IC50 (α-amylase) [µM] | further results
Cc1ccc(S(=O)(=O)Nc2cccc(C(=O)/C=C/c3ccc(O)cc3)c2)cc1 [Example 14, 3′-(p-toluenesulfonylamino)-4-hydroxychalcone] | 25.6 | – | – | –
CS(=O)(=O)Nc1ccc(C(=O)/C=C/c2ccc(O)cc2)cc1 [Example 6, 4′-(methanesulfonylamino)-4-hydroxychalcone] | 20.3 | 65 | 194 | –
Nc1ccc(C(=O)/C=C/c2ccc(O)cc2)cc1 [Example 8, 4′-amino-4-hydroxychalcone] | 12.5 | – | 269 | IC50 β-amylase (β-amylase): NI (NI denotes the cases where the inhibitory rates were below 20% measured when the concentration of the chalcone derivatives was 200 μM or means that there were no inhibitory activities for α-, or β-amylases)
O=C(/C=C/c1ccc(O)c(O)c1)c1ccc(NS(=O)(=O)c2ccc([N+](=O)[O-])cc2)cc1 [Example 10, 4′-(p-nitrobenzenesulfonylamino)-3,4-dihydroxychalcone] | – | 201 | 37.3 | –
OC[C@H]1O[C@@H](Oc2ccc(O)cc2)[C@H](O)[C@@H](O)[C@@H]1O [Albutin, albutin, reference compound] | 92 | – | – | –
Nc1cccc(C(=O)/C=C/c2ccc(O)cc2)c1 [Example 13, 3′-amino-4-hydroxychalcone] | – | – | – | cytotoxicity of the compounds (B-16 melanoma [2]): ND (ND denotes the cases where the experiments on the melanin synthesis inhibitory activities in B-16 melanoma were not performed since the cytotoxicity of the compounds was shown as more than 50%)
CS(=O)(=O)Nc1ccc(C(=O)/C=C/c2ccc(O)c(O)c2)cc1 [Example 12, 4′-(methanesulfonylamino)-3,4-dihydroxychalcone] | – | 24.8 | 16.8 | –
O=C(/C=C/c1ccc(O)cc1)c1ccc(O)cc1 [Example 18, 4′,4-dihydroxychalcone] | – | – | – | cytotoxicity of the compounds (B-16 melanoma [2]): ND (ND denotes the cases where the experiments on the melanin synthesis inhibitory activities in B-16 melanoma were not performed since the cytotoxicity of the compounds was shown as more than 50%)
Cc1ccc(S(=O)(=O)Nc2ccc(C(=O)/C=C/c3ccc(O)cc3)cc2)cc1 [Example 2, 4′-(p-toluenesulfonylamino)-4-hydroxychalcone] | 14.8 | 247 | 87.8 | –
O=C(/C=C/c1ccc(O)cc1)c1ccc(NS(=O)(=O)c2ccc([N+](=O)[O-])cc2)cc1 [Example 4, 4′-(p-nitrobenzenesulfonylamino)-4-hydroxychalcone] | – | – | – | cytotoxicity of the compounds (B-16 melanoma [2]): ND^a (ND denotes the cases where the experiments on the melanin synthesis inhibitory activities in B-16 melanoma were not performed since the cytotoxicity of the compounds was shown as more than 50%)
O=C(/C=C/c1ccc(O)c(O)c1)c1ccc(NS(=O)(=O)c2ccccc2)cc1 [Example 9, 4′-benzenesulfonylamino-3,4-dihydroxychalcone] | – | 206 | – | IC50 α-amylase (α-amylase): NI (NI denotes the cases where the inhibitory rates were below 20% measured when the concentration of the chalcone derivatives was 200 μM or means that there were no inhibitory activities for α-, or β-amylases)
O=C(/C=C/c1ccc(O)cc1)c1ccc(NS(=O)(=O)c2ccccc2)cc1 [Example 3, 4′-benzenesulfonylamino-4-hydroxychalcone] | 20.6 | – | – | –
O=C(/C=C/c1ccc(O)cc1)c1ccc(NS(=O)(=O)c2ccc(F)cc2)cc1 [Example 5, 4′-(p-fluorobenzenesulfonylamino)-4-hydroxychalcone] | 23.7 | 127 | – | IC50 α-amylase (α-amylase): NI^a (NI denotes the cases where the inhibitory rates were below 20% measured when the concentration of the chalcone derivatives was 200 μM or means that there were no inhibitory activities for α-, or β-amylases)
O=C(/C=C/c1ccc(O)c(O)c1)c1ccc(NS(=O)(=O)c2ccc(F)cc2)cc1 [Example 11, 4′-(p-fluorobenzenesulfonylamino)-3,4-dihydroxychalcone] | – | – | – | IC50 β-amylase (β-amylase): NI (NI denotes the cases where the inhibitory rates were below 20% measured when the concentration of the chalcone derivatives was 200 μM or means that there were no inhibitory activities for α-, or β-amylases); IC50 α-amylase (α-amylase): NI (NI denotes the cases where the inhibitory rates were below 20% measured when the concentration of the chalcone derivatives was 200 μM or means that there were no inhibitory activities for α-, or β-amylases)
O=C(/C=C/c1ccc(O)cc1)c1ccccc1 [Example 17, 4-hydroxychalcone] | – | – | – | cytotoxicity of the compounds (B-16 melanoma [2]): ND (ND denotes the cases where the experiments on the melanin synthesis inhibitory activities in B-16 melanoma were not performed since the cytotoxicity of the compounds was shown as more than 50%)
